# Patent US20090012054A1, “Cephem Compounds and Use as Antimicrobial Agents” (priority 2006, published 2009)
# Where two headings read alike, the source gives them in different places.
# Key:
# Assay in all cases: In vitro antibacterial activity (MIC), two-fold agar-plate dilution method
# Format in all cases: cell-based
# [1] = tested on: Pseudomonas aeruginosa FP 1380; conditions: Pseudomonas aeruginosa FP 1380, AmpC β-lactamase overproduced strain, HI-agar, 37° C. for 20 hours
# Description: (§1) Now in order to show the utility of the object compound [I], the test data on MIC (minimal inhibitory concentration) of a representative compound of this invention are shown in the following.
# (§2) In vitro antibacterial activity was determined by the two-fold agar-plate dilution method as described below.
# (§3) One loopful of an overnight culture of each test strain in Trypticase-soy broth (10^6 viable cells per ml) was streaked on heart infusion agar (HI-agar) containing graded concentrations of representative test compound, and the minimal inhibitory concentration (MIC) was expressed in μg/ml after incubation at 37° C. for 20 hours.
# [2] = tested on: Pseudomonas aeruginosa 19136; conditions: Pseudomonas aeruginosa 19136, metallo β-lactamase producing strain, HI-agar, 37° C. for 20 hours
# Description: as §1, §2, §3
# [3] = tested on: Pseudomonas aeruginosa 22027; conditions: Pseudomonas aeruginosa 22027, metallo β-lactamase producing strain, HI-agar, 37° C. for 20 hours
# Description: as §1, §2, §3
Molecule,MIC [1],MIC [2],MIC [3],"MIC ([1]; FP1380, read-out: MIC)",MIC ([2]; read-out: MIC),MIC ([3]; read-out: MIC)
"7β-[(Z)-2-(5-amino-1,2,4-thiadiazol-3-yl)-2-(1-carboxy-1-methylethoxyimino)acetamido]-3-{3-[1-(3-aminopropyl)guanidino]-2,3-dihydro-5-(1H-imidazo[1,2-b]pyrazolio)}methyl-3-cephem-4-carboxylate sulfate [Compound (A)]",0.5 µg/mL,2 µg/mL,8 µg/mL,–,–,–
"C[C@H]1[C@H](NC(=O)/C(=N\OC(C)(C)C(=O)O)c2csc(N)n2)C(=O)N1S(=O)(=O)O [Aztreonam, reference compound]",–,–,–,64 µg/mL,4 µg/mL,32 µg/mL
"CC(C)(O/N=C(\C(=O)N[C@@H]1C(=O)N2C(C(=O)O)=C(C[n+]3cc(N(CCN)C(=N)N)c4n3CCCN4)CS[C@H]12)c1nsc(N)n1)C(=O)O.O=S(=O)([O-])O [Compound (B), 7β-[(Z)-2-(5-amino-1,2,4-thiadiazol-3-yl)-2-(1-carboxy-1-methylethoxyimino)acetamido]-3-{3-[1-(2-aminoethyl)guanidino]-4,5,6,7-tetrahydro-1-(pyrazolo[1,5-a]pyrimidinio)}methyl-3-cephem-4-carboxylate sulfate]",0.5 µg/mL,2 µg/mL,8 µg/mL,–,–,–
